For the test, the system named is OCI-Ly10. Briefly: Inhibition of growth of OCI-Ly10 (ABC-DLBCL cells). The class given is cell-based. The conditions noted are these: Homo sapiens. From the text:
DLBCL cells of the ABC subtype, such as OCI-Ly10, have chronic active BCR signaling and are very sensitive to the Btk inhibitor described herein. […] In addition, induction of apoptosis, as shown by capsase activation, Annexin-V flow cytometry and increase in sub-GO fraction is observed in OCILy 10. Both sensitive and resistant cells express Btk at similar levels, and the active site of Btk is fully occupied by the inhibitor in both as shown using a fluorescently labeled affinity probe. […] The activity of Btk inhibitors in the cell lines studied herein are also characterized by comparing signal transduction profiles (Btk, PLCγ, ERK, NF-kB, AKT), cytokine secretion profiles and mRNA expression profiles, both with and without BCR stimulation, and observed significant differences in these profiles that lead to clinical biomarkers that identify the most sensitive patient populations to Btk inhibitor treatment. See U.S. Pat. No. 7,711,492 and Staudt et al., Nature, Vol. 463, Jan. 7, 2010, pp. 88-92, the contents of which are incorporated by reference in their entirety.

Results on one compound are retold here after patent publication US10010507B1, “Pharmaceutical formulations of a bruton's tyrosine kinase inhibitor” (Pharmacyclics LLC, priority 2015, dated 2018).

Molecules are shown by their SMILES. Like-named read-outs stand apart in the source and are kept apart here.

What is called EC50 is the concentration needed to bring the measured effect to its halfway point. On to `C=CC(=O)N1CCC[C@@H](n2nc(-c3ccc(Oc4ccccc4)cc3)c3c(N)ncnc32)C1` [Compound 1, 1-((R)-3-(4-amino-3-(4-phenoxyphenyl)-1H-pyrazolo[3,4-d]pyrimidin-1-yl)piperidin-1-yl)prop-2-en-1-one], for which the EC50 by setting is: (read-out: EC50 1 hour pulse, growth of OCI-Ly10, 1 hour pulse) 50 nM; (growth of OCI-Ly10, continuous exposure, read-out: EC50 continuous exposure) 10 nM.
